Experimental data taken from ChEMBL document CHEMBL1156328, “Synthesis of cycloalkane-annelated 3-phenylsulfonyl-pyrazolo[1,5-a]pyrimidines and their evaluation as 5-HT6 receptor antagonists” (Bioorg Med Chem Lett, 2010).
Active and inactive are the calls of the source. No cut-off for these calls is given here.

Legend:
[1] = target: 5-hydroxytryptamine receptor 6 (Homo sapiens, UniProt P50406); test: Antagonist activity at human 5HT6 receptor in HEK293 cells assessed as inhibition of serotonin-induced cAMP accumulation pretreated for 15 mins before serotonin challenge measured after 30 mins; type: functional, cell-based
Chain of 5-hydroxytryptamine receptor 6 (P50406 whole entry): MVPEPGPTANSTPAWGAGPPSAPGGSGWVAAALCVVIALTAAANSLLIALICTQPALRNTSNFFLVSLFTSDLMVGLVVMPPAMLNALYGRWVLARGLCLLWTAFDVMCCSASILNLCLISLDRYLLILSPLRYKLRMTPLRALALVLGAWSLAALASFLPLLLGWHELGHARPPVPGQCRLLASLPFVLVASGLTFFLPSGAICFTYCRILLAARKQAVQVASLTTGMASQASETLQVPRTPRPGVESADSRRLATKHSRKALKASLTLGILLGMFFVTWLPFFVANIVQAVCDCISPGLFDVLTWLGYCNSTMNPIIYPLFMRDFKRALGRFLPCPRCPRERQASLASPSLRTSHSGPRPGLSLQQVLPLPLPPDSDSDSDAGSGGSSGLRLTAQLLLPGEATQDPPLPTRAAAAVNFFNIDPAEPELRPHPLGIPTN

[2] = target: T1, 5-hydroxytryptamine receptor 2B (Homo sapiens, UniProt P41595); test: Agonist activity at human 5HT2B receptor in HEK293 cells assessed as stimulation of intracellular calcium mobilization by Fura-2AM dye based spectrofluorimetry
T1 sequence (P41595 whole entry): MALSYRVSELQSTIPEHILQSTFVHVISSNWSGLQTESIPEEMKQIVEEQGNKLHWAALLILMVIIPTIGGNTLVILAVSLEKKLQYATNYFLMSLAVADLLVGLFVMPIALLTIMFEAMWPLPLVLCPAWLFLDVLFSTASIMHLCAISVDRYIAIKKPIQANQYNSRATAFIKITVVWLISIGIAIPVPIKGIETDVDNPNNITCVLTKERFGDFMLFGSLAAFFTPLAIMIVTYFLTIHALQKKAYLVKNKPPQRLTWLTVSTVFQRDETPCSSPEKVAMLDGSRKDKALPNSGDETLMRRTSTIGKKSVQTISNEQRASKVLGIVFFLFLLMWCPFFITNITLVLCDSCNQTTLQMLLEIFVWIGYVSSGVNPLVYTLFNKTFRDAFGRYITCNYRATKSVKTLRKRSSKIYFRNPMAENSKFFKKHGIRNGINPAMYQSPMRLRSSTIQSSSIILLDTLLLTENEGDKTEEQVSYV

[3] = target: T1, 5-hydroxytryptamine receptor 2B; test: Antagonist activity at human 5HT2B receptor in HEK293 cells assessed as inhibition of alpha-ME-5-HT-induced intracellular calcium mobilization pretreated for 15 secs before alphaME-5-HT addition by Fura-2AM dye based spectrofluorimetry
hERG (KCNH2) = hERG (KCNH2) (Homo sapiens, UniProt Q12809); test: Inhibition of human recombinant ERG at 10 uM by patch clamp assay; conditions: recombinant human ERG channel
Chain of hERG (KCNH2) (Q12809 whole entry): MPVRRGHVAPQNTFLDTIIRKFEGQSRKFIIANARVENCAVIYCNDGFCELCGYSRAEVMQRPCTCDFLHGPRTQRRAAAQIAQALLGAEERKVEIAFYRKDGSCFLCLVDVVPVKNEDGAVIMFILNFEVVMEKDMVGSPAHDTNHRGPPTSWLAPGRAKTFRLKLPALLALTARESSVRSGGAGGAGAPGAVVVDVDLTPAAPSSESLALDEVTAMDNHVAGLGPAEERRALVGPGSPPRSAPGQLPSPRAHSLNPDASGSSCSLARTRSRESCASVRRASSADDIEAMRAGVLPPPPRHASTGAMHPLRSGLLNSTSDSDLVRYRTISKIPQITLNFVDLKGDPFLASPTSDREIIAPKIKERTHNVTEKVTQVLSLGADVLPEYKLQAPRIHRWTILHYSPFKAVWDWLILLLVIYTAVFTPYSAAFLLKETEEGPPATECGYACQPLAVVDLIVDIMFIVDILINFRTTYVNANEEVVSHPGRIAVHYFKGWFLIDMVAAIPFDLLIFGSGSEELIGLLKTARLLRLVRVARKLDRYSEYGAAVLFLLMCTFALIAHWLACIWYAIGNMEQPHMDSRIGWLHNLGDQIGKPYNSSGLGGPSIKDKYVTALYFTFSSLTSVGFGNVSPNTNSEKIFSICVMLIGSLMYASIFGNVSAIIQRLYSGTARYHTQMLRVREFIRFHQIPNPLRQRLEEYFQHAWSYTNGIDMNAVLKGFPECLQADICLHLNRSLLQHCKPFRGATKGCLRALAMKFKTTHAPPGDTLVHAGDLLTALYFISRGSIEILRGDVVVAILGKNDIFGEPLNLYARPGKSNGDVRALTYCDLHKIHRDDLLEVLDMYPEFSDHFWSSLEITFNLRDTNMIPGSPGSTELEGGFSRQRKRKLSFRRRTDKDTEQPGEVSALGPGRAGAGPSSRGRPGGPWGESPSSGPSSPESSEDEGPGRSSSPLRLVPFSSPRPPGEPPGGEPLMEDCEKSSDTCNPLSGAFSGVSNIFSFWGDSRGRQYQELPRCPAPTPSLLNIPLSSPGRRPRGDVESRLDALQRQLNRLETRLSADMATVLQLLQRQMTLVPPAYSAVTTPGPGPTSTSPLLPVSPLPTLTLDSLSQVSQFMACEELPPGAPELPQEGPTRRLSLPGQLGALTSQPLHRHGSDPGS

Compound | IC50 [1] | Activity [2] | IC50 [3] | inhibition at 10 µM (hERG (KCNH2))
CSc1nn2c3c(cnc2c1S(=O)(=O)c1ccccc1)CCC3 | 6 nM | inactive | 118 nM | –
CSc1nn2c3c(cnc2c1S(=O)(=O)c1ccccc1)CCCC3 | 7.5 nM | inactive | 411 nM | –
CSc1nn2c(C)c3c(nc2c1S(=O)(=O)c1ccccc1)CCCC3 | – | inactive | 127 nM | 25%
CSc1nn2cc3c(nc2c1S(=O)(=O)c1ccccc1)CCCC3 | 98.5 nM | – | – | –
CSc1nn2c3c(c(C)nc2c1S(=O)(=O)c1ccccc1)CCCC3 | 16.8 nM | inactive | 161 nM | –
